Data: ChEMBL document CHEMBL1201862, “PubChem BioAssay data set” (2004)
Counter-ions that a name gives are not always drawn.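 1) Cells in 96-well plates. 2) Compound, 48 h, 5 concentrations. 3) Linear interpolation between surrounding doses. 4) Unreached endpoint = highest concentration. At the GI50, growth is halved.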 Activity calls are given as the source filed them. No stated cut-off is given here; in the data, active = GI50 up to about 1.1 µM and inactive = higher.

What was measured:
Experiment in all cases: NCI anticancer screen, dose series, 48 h
A549 = test system: A549
SF-295 = test system: SF-295
LOX IMVI = test system: LOX IMVI
SNB-19 = test system: SNB-19
SK-MEL-28 = test system: SK-MEL-28
U-251 = test system: U-251
RPMI-8226 = test system: RPMI-8226
SK-MEL-2 = test system: SK-MEL-2
IGROV-1 = test system: IGROV-1
HCC 2998 = test system: HCC 2998
OVCAR-8 = test system: OVCAR-8
Malme-3M = test system: Malme-3M
SW-620 = test system: SW-620
M19-MEL = test system: M19-MEL
KM-20L2 = test system: KM-20L2
MDA-N = test system: MDA-N
MCF7 = test system: MCF7
T47D = test system: T47D
PC-3 = test system: PC-3
SR = test system: SR

Measured: GI50

O=C(C#Cc1cnc(O)nc1O)c1ccccc1
inactive: A549 24.7 µM | SF-295 35.9 µM | LOX IMVI 4.42 µM | SNB-19 17.3 µM | SK-MEL-28 10.9 µM | U-251 13.9 µM | RPMI-8226 7.76 µM | SK-MEL-2 12.1 µM | IGROV-1 17.9 µM | HCC 2998 18.3 µM | OVCAR-8 10.5 µM | Malme-3M 3.34 µM | SW-620 6.76 µM | M19-MEL 9.48 µM

CC(=O)OCCOCNC(=S)N/N=C(\C)c1ccco1
inactive: A549 > 100 µM | SF-295 > 100 µM | LOX IMVI > 100 µM | SNB-19 > 100 µM | SK-MEL-28 > 100 µM | U-251 > 100 µM | KM-20L2 > 100 µM | SK-MEL-2 > 100 µM | IGROV-1 > 100 µM | HCC 2998 > 100 µM | OVCAR-8 > 100 µM | Malme-3M > 100 µM | SW-620 > 100 µM | M19-MEL > 100 µM

C=CCC(OCCOCC)c1cc(OCCOCC)ccc1OC (centres undefined)
inactive: A549 > 100 µM | SF-295 > 100 µM | LOX IMVI > 100 µM | SNB-19 > 100 µM | SK-MEL-28 > 100 µM | U-251 > 100 µM | RPMI-8226 > 100 µM | SK-MEL-2 > 100 µM | IGROV-1 > 100 µM | HCC 2998 > 100 µM | OVCAR-8 > 100 µM | Malme-3M > 100 µM | SW-620 > 100 µM | M19-MEL > 100 µM

N#Cc1c(-c2ccco2)cc(-c2ccc(NCc3nc4ccccc4[nH]3)cc2)nc1N
inactive: A549 29.8 µM | SF-295 19.5 µM | LOX IMVI 18.7 µM | SNB-19 20.5 µM | SK-MEL-28 27.5 µM | U-251 25.9 µM | RPMI-8226 19.2 µM | SK-MEL-2 20.3 µM | IGROV-1 23 µM | HCC 2998 21.8 µM | OVCAR-8 20.4 µM | Malme-3M 24.5 µM | SW-620 35.3 µM | M19-MEL 25.1 µM

O=C1CC(C(O)(C(F)(F)F)C(F)(F)Cl)CCC1C(O)(C(F)(F)F)C(F)(F)Cl (centres undefined)
inactive: MDA-N > 10 µM | A549 > 10 µM | SF-295 7.5 µM | MCF7 8.71 µM | LOX IMVI > 10 µM | T47D > 10 µM | PC-3 2.68 µM | SNB-19 > 10 µM | SK-MEL-28 > 10 µM | U-251 > 10 µM | RPMI-8226 > 10 µM | SK-MEL-2 3.25 µM | IGROV-1 > 10 µM | SR > 10 µM | HCC 2998 > 10 µM | OVCAR-8 > 10 µM | Malme-3M > 10 µM | SW-620 > 10 µM

NCCS [CYSTEAMINE HYDROCHLORIDE]
inactive: MDA-N > 100 µM | A549 > 100 µM | SF-295 > 100 µM | MCF7 > 100 µM | LOX IMVI > 100 µM | T47D > 100 µM | PC-3 > 100 µM | SNB-19 > 100 µM | SK-MEL-28 > 100 µM | U-251 > 100 µM | RPMI-8226 > 100 µM | SK-MEL-2 > 100 µM | IGROV-1 > 100 µM | SR > 100 µM | HCC 2998 > 100 µM | OVCAR-8 > 100 µM | Malme-3M > 100 µM | SW-620 > 100 µM

COC(=O)/C(=N\Nc1nc(S)nn1N)C(C#N)c1ccccc1 (centres undefined)
inactive: A549 > 100 µM | LOX IMVI > 100 µM | SNB-19 > 100 µM | SK-MEL-28 > 100 µM | U-251 > 100 µM | KM-20L2 > 100 µM | RPMI-8226 > 100 µM | SK-MEL-2 > 100 µM | IGROV-1 > 100 µM | HCC 2998 > 100 µM | OVCAR-8 > 100 µM | Malme-3M > 100 µM | SW-620 > 100 µM | M19-MEL > 100 µM

COc1cnc2cc(C(=O)O)c3c([N+](=O)[O-])cccc3c2c1
inactive: MDA-N > 100 µM | A549 > 100 µM | SF-295 > 100 µM | MCF7 > 100 µM | LOX IMVI > 100 µM | T47D > 100 µM | PC-3 > 100 µM | SNB-19 > 100 µM | SK-MEL-28 > 100 µM | U-251 > 100 µM | RPMI-8226 > 100 µM | SK-MEL-2 > 100 µM | IGROV-1 > 100 µM | SR > 100 µM | HCC 2998 > 100 µM | OVCAR-8 > 100 µM | Malme-3M > 100 µM | SW-620 > 100 µM

O=C1C2=C(c3ccccc31)C(c1ccc(Cl)cc1)N1C(=O)CCSC1=N2 (centres undefined)
inactive: A549 69.3 µM | SF-295 99.3 µM | SNB-19 > 100 µM | SK-MEL-28 > 100 µM | U-251 > 100 µM | KM-20L2 > 100 µM | RPMI-8226 39 µM | SK-MEL-2 > 100 µM | IGROV-1 98.6 µM | HCC 2998 > 100 µM | OVCAR-8 > 10 µM | Malme-3M 89.3 µM | SW-620 63.1 µM | M19-MEL > 100 µM

Cn1c2cc(O)cc(O)c2c(=O)c2c([N+](=O)[O-])cccc21
inactive: A549 > 100 µM | SF-295 > 100 µM | LOX IMVI > 100 µM | SNB-19 > 100 µM | SK-MEL-28 > 100 µM | U-251 > 100 µM | KM-20L2 > 100 µM | RPMI-8226 > 100 µM | SK-MEL-2 > 100 µM | IGROV-1 > 100 µM | SR > 100 µM | HCC 2998 > 100 µM | OVCAR-8 > 100 µM | Malme-3M > 100 µM | SW-620 > 100 µM

C/N=C(N)/N=C(\N)Nc1cc2ccccc2c2ccccc12
inactive: MDA-N 13.9 µM | A549 14.2 µM | SF-295 17.1 µM | MCF7 13.2 µM | LOX IMVI 13 µM | T47D 14.8 µM | PC-3 15.8 µM | SNB-19 15.8 µM | SK-MEL-28 17.8 µM | U-251 15.2 µM | RPMI-8226 15.5 µM | SK-MEL-2 18 µM | IGROV-1 17.9 µM | SR 13.8 µM | HCC 2998 2.44 µM | OVCAR-8 16.8 µM | Malme-3M 15 µM | SW-620 16.6 µM

O=C1/C(=C/c2ccc(O)cc2)CCCC1CN1CCCCC1 (centres undefined)
inactive: MDA-N 3.47 µM | A549 17.2 µM | SF-295 16.1 µM | MCF7 1.69 µM | LOX IMVI 1.56 µM | T47D 2.32 µM | PC-3 5.38 µM | SNB-19 17.6 µM | SK-MEL-28 5.43 µM | U-251 7.91 µM | RPMI-8226 1.32 µM | SK-MEL-2 11.2 µM | IGROV-1 1.97 µM | SR 1.39 µM | HCC 2998 4.76 µM | OVCAR-8 5.92 µM | Malme-3M 1.88 µM | SW-620 1.88 µM

CCOC(=O)NC(=O)c1cn(CCCOC(=O)CCCCCCCCCCC(=O)OCCCn2cc(C(=O)NC(=O)OCC)c(=O)n(C)c2=O)c(=O)n(C)c1=O
inactive: A549 > 100 µM | SF-295 > 100 µM | LOX IMVI > 100 µM | SNB-19 > 100 µM | SK-MEL-28 > 100 µM | U-251 > 100 µM | RPMI-8226 > 100 µM | SK-MEL-2 > 100 µM | IGROV-1 > 100 µM | SR > 100 µM | HCC 2998 > 100 µM | OVCAR-8 > 100 µM | Malme-3M > 100 µM | SW-620 > 100 µM | M19-MEL > 100 µM
